Experimental data as given in patent US8916499B2, “Herbicidal compositions comprising 4-amino-3-chloro-5-fluoro-6-(4-chloro-2-fluoro-3-methoxyphenyl) pyridine-2-carboxylic acid or a derivative thereof and a protoporphyrinogen oxidase inhibitor” (Dow AgroSciences LLC, priority 2012, dated 2014).

Tests used:
[1] = system: LEFCH; assay: Postemergence foliar-applied weed control, direct seeded rice, greenhouse (Example I); format: in vivo, Leptochloa chinensis (L.) Nees
[2] = system: CYPIR; assay: as above; format: in vivo, Cyperus iria L.; settings: g ae/ha Compound A Acid+g ai/ha saflufenacil: r24 4.38+0, r25 0+5, r26 0+10, r27 0+20, r28 4.38+5, r29 4.38+10, r30 4.38+20
[3] = system: ECHCO; assay: as above; format: in vivo, Echinochloa colona (L.) Link
[4] = system: IPOHE; assay: as above; format: in vivo, Ipomoea hederacea Jacq.
[5] = system: BRAPP; assay: as above; format: in vivo, Brachiaria platyphylla (Griseb.) Nash; settings: g ae/ha Compound A Acid+g ai/ha pyraclonil: r11 4.38+0, r12 0+33.75, r13 0+67.5, r14 0+135, r15 4.38+33.75, r16 4.38+67.5, r17 4.38+135
[6] = system: ECHCG; assay: In-water applied weed control, transplanted paddy rice, greenhouse (Example II); format: in vivo, Echinochloa crus-galli (L.) P. Beauv.
[7] = system: ECHOR; assay: as above; format: in vivo, Echinochloa oryzoides (Ard.) Fritsch
[8] = system: LEFCH; assay: as above; format: in vivo, Leptochloa chinensis (L.) Nees
[9] = system: CYPRO; assay: as above; format: in vivo, Cyperus rotundus L.
[10] = system: SCPJU; assay: as above; format: in vivo, Schoenoplectus juncoides (Roxb.) Palla
[11] = system: FIMMI; assay: as above; format: in vivo, Fimbristylis miliacea (L.) Vahl; settings: 8.75 g ae/ha alone
[12] = system: ISCRU; assay: Postemergence foliar-applied weed control, direct seeded rice, greenhouse (Example I); format: in vivo, Ischaemum rugosum Salisb.; settings: g ae/ha Compound A Benzyl Ester+g ai/ha saflufenacil: r49 8+0, r50 16+0, r51 0+10, r52 0+20, r53 8+10, r54 16+10, r55 8+20, r56 16+20

## COc1c(Cl)ccc(-c2nc(C(=O)O)c(Cl)c(N)c2F)c1F [Compound A Acid, 4-amino-3-chloro-5-fluoro-6-(4-chloro-2-fluoro-3-methoxy-phenyl)pyridine-2-carboxylic acid]
[1]; g ae/ha Compound A Acid+g ai/ha carfentrazone-ethyl: r39 19.4+0, r40 0+28, r41 19.4+28
  Visual Weed Control (%) - 19 DAA LEFCH Obs: 5%
[2]
  Visual Weed Control (%) - 20 DAA CYPIR Obs: 30%
[3]; g ae/ha Compound A Acid+g ai/ha saflufenacil: r24 4.38+0, r25 0+5, r26 0+10, r27 0+20, r28 4.38+5, r29 4.38+10, r30 4.38+20
  Visual Weed Control (%) - 20 DAA ECHCO Obs: 40%
[4]; first section, g ae/ha Compound A Acid+g ai/ha oxadiazon: r12 8.75+0, r13 0+31.25, r14 0+62.5, r15 0+125, r16 8.75+31.25, r17 8.75+62.5, r18 8.75+125
  Visual Weed Control (%) - 20 DAA IPOHE Obs: 10%
[4]; g ae/ha Compound A Acid+g ai/ha pyraclonil: r53 35+0, r54 0+270, r55 35+270
  Visual Weed Control (%) - 21 DAA IPOHE Obs: 45%
[5]
  Visual Weed Control (%) - 20 DAA BRAPP Obs: 10%
[6]; 8.75 g ae/ha alone
  Visual Weed Control (%) - 21 DAA ECHCG Obs: 15%
[6]; 17.5 g ae/ha alone
  Visual Weed Control (%) - 20 DAA ECHCG Obs: 50%
  Visual Weed Control (%) - 21 DAA ECHCG Obs: 20%
[6]; 35 g ae/ha alone
  Visual Weed Control (%) - 20 DAA ECHCG Obs: 95%
  Visual Weed Control (%) - 21 DAA ECHCG Obs: 95%
[7]; g ae/ha Compound A Acid+g ai/ha carfentrazone-ethyl: r28 42.4+0, r29 0+215, r30 42.4+215
  Visual Weed Control (%) - 19 DAA ECHOR Obs: 15%
[8]; 17.5 g ae/ha alone
  Visual Weed Control (%) - 20 DAA LEFCH Obs: 0%
[8]; 35 g ae/ha alone
  Visual Weed Control (%) - 20 DAA LEFCH Obs: 30%
  Visual Weed Control (%) - 21 DAA LEFCH Obs: 5%
[8]; 70 g ae/ha alone
  Visual Weed Control (%) - 21 DAA LEFCH Obs: 23%
[9]; 8.75 g ae/ha alone
  Visual Weed Control (%) - 20 DAA CYPRO Obs: 0%
[9]; 17.5 g ae/ha alone
  Visual Weed Control (%) - 20 DAA CYPRO Obs: 20%
[9]; 35 g ae/ha alone
  Visual Weed Control (%) - 20 DAA CYPRO Obs: 80%
  Visual Weed Control (%) - 21 DAA CYPRO Obs: 70%
[10]; 8.75 g ae/ha alone
  Visual Weed Control (%) - 21 DAA SCPJU Obs: 40%
[10]; 17.5 g ae/ha alone
  Visual Weed Control (%) - 21 DAA SCPJU Obs: 60%
[10]; 35 g ae/ha alone
  Visual Weed Control (%) - 21 DAA SCPJU Obs: 95%
[11]
  Visual Weed Control (%) - 21 DAA FIMMI Obs: 0%

## CC(C)N(C)S(=O)(=O)NC(=O)c1cc(-n2c(=O)cc(C(F)(F)F)n(C)c2=O)c(F)cc1Cl [Saflufenacil, 2-chloro-5-[3,6-dihydro-3-methyl-2,6-dioxo-4-(trifluoromethyl)-1(2H)-pyrimidinyl]-4-fluoro-N-[[methyl(1-methylethyl)amino]sulfonyl]benzamide, reference compound]
[1]; g ae/ha Compound A Acid+g ai/ha saflufenacil: r11 4.38+0, r12 8.75+0, r13 17.5+0, r14 0+5, r15 4.38+5, r16 8.75+5, r17 17.5+5
  Visual Weed Control (%) - 20 DAA LEFCH Obs: 0%
[1]; g ae/ha Compound A Benzyl Ester+g ai/ha saflufenacil: r26 8.75+0, r27 17.5+0, r28 0+5, r29 0+10, r30 8.75+5, r31 17.5+5, r32 8.75+10, r33 17.5+10
  Visual Weed Control (%) - 20 DAA LEFCH Obs: 0%
[3]; g ae/ha Compound A Benzyl Ester+g ai/ha saflufenacil: r14 4.38+0, r15 8.75+0, r16 0+10, r17 0+20, r18 4.38+10, r19 8.75+10, r20 4.38+20, r21 8.75+20
  Visual Weed Control (%) - 20 DAA ECHCO Obs: 40%
[12]
  Visual Weed Control (%) - 21 DAA ISCRU Obs: 0%
[6]; 10 g ai/ha alone
  Visual Weed Control (%) - 20 DAA ECHCG Obs: 0%
[6]; 20 g ai/ha alone
  Visual Weed Control (%) - 20 DAA ECHCG Obs: 10%
[7]; 10 g ai/ha alone
  Visual Weed Control (%) - 20 DAA ECHOR Obs: 0%
[7]; 20 g ai/ha alone
  Visual Weed Control (%) - 20 DAA ECHOR Obs: 0%
[8]; 10 g ai/ha alone
  Visual Weed Control (%) - 20 DAA LEFCH Obs: 0%
[8]; 20 g ai/ha alone
  Visual Weed Control (%) - 20 DAA LEFCH Obs: 0%
[8]; 40 g ai/ha alone
  Visual Weed Control (%) - 21 DAA LEFCH Obs: 5%
[9]; 10 g ai/ha alone
  Visual Weed Control (%) - 20 DAA CYPRO Obs: 0%
